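Cultured in 96-well plates, cells were exposed to test compound for 48 hours across five concentrations. GI50 marks 50% less growth. TGI is the concentration that stops growth completely.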
Key:
Assay in all cases: NCI-60 cell line screen, 48 h
[1] = test system: COLO 205 colon
[2] = test system: EKVX NSCLC
[3] = test system: HS 578T breast
[4] = test system: MALME-3M melanoma
[5] = test system: MDA-MB-231 breast
[6] = test system: NCI-H23 lung
[7] = test system: PC-3 prostate
[8] = test system: RPMI-8226 leukemia
[9] = test system: SN12C renal
[10] = test system: SNB-75 CNS

Row | SMILES | TGI [1] [µM] | TGI [2] [µM] | TGI [3] [µM] | TGI [4] [µM] | TGI [5] [µM] | TGI [6] [µM] | TGI [7] [µM] | TGI [8] [µM] | TGI [9] [µM] | TGI [10] [µM] | GI50 [1] [µM] | GI50 [2] [µM] | GI50 [3] [µM] | GI50 [4] [µM] | GI50 [5] [µM] | GI50 [6] [µM] | GI50 [7] [µM] | GI50 [8] [µM] | GI50 [9] [µM] | GI50 [10] [µM]
1 | CN(C)CCSS(=O)(=O)O | > 100 | > 100 | > 100 | > 100 | > 100 | > 100 | > 100 | > 100 | > 100 | > 100 |  |  |  |  |  |  |  |  |  | 
2 | O=C(Nn1c(-c2ccccc2)nc2ccccc2c1=O)c1ccccc1O | > 100 | > 100 | > 100 | > 100 | > 100 | > 100 | > 100 | > 100 | > 100 | > 100 |  |  |  |  |  |  |  |  |  | 
3 | COC(=O)C1C(O)C(C)C(O)C(C)C=C(C)C2=C3C(=C(C)C(=O)c4c(O)c(c(C)c(OC(C)=O)c43)NC(=O)C(C)=C/C=C\C(C)C(O)C(C)C1O)OCO2 (centres undefined) | 63.6 | > 100 | > 100 | 38.5 | 77.6 | 63 | > 100 | 55.3 | > 100 | 92.9 |  |  |  |  |  |  |  |  |  | 
4 | O=C(NCCc1ccccn1)OCc1nc2nc(Cl)nc(N3CCOCC3)c2[nH]1 | 6.12 | 11.3 | 9.77 | 3.1 | 3.17 | 4.14 | 3.73 | 5.63 | 3.19 | 15.5 | 2.44 | 2.93 | 2.71 | 1.62 | 1.6 | 1.77 | 1.7 | 1.62 | 1.5 | 2.42
5 | C=CC(=O)Nc1cc(N2CCN(CC)CC2)ccc1Nc1cc(N(C)C(=O)Nc2c(Cl)c(OC)cc(OC)c2Cl)ncn1 | 18.3 | 35.9 | 40.8 | 19.3 | 11.5 | 20 | 20.8 | 7.22 | 9.72 | 14.2 | 4.16 | 12.4 | 4.77 | 5.06 | 3.26 | 4.36 | 5.05 | 2.37 | 2.84 | 2.48
6 | Cc1nc(Nc2cccnc2)sc1C(=O)/C=C/c1ccc(Cl)cc1 | 6.47 | > 100 | > 100 | 23.6 | > 100 | 40.8 | 12 | 9.03 | 9.13 | 14.7 | 2.53 | 6.99 | 4.11 | 3.3 | 4.7 | 3.43 | 3.27 | 2.5 | 2.91 | 2.82
7 | Cc1nc(Nc2ccccn2)sc1C(=O)/C=C/c1ccc(Cl)cc1 | 1.35 | > 100 | > 100 | 43.8 | 3.58 | > 100 | > 100 | > 100 | > 47.4 | 24.7 | 0.322 | 0.846 | 0.398 | 0.734 | 0.366 | 0.567 | 0.368 | 0.523 | 0.547 | 0.296
8 | Cc1nc2c(n1C)C(=O)c1ccccc1C2=O | > 100 | > 100 | > 100 | 28.5 | > 100 | > 100 | > 100 | > 100 | > 100 | > 100 | 37.4 | 60.4 | > 100 | 4.74 | > 100 | 50.4 | 63.9 | > 100 | 49.4 | > 100
9 | Cc1nc2ccc(NC(=O)CCNC(=O)CCCc3ccc(CC(C(=O)O)C(=O)O)cc3)cc2s1 | > 100 | > 100 | > 100 | > 100 | > 100 | > 100 | > 100 | > 100 | > 100 | > 100 | > 100 | > 100 | > 100 | > 100 | > 100 | > 100 | > 100 | > 100 | > 100 | > 100
10 | O=c1cc(N/N=C/c2ccc(F)cc2)c2cc(Cl)ccc2[nH]1 | 43.5 | > 100 | > 100 | 54 | 51.7 | 76.1 | 96.3 | > 100 | > 100 | 83.1 | 18.2 | 16.8 | 25.3 | 14.2 | 16 | 19.5 | 8.41 | 17 | 23.8 | 12.7
11 | Cc1ccc(N=Nc2c(O)ccc3ccccc23)cc1 | > 100 | > 100 | > 100 | > 100 | > 100 | > 100 | > 100 | > 100 | > 100 | > 100 |  |  |  |  |  |  |  |  |  | 
12 | O=C(Oc1ccc(CO[N+](=O)[O-])cc1)c1ccccc1 | 0.301 | 1.59 | 0.422 | 0.272 | 0.306 | 1.43 | 0.301 | 0.33 | 0.701 | 0.333 | 0.128 | 0.407 | 0.0911 | 0.123 | 0.144 | 0.351 | 0.13 | 0.0912 | 0.216 | 0.158
13 | Cn1cc(-c2ccc3nnc(Sc4ccc5ncccc5c4)n3n2)cn1 | > 100 | > 100 | > 72.1 | > 100 | 96.9 | > 100 | > 100 | > 100 | > 100 | > 100 | 30.4 | 97 | 10.4 | > 100 | 24.4 | 56 | > 92.7 | 41.2 | > 73.9 | 26.1
14 | O=C(c1ccccc1)c1c(NCC(O)CN2CCOCC2)n(Cc2ccccc2)c(=O)n(Cc2ccccc2)c1=O (centres undefined) | > 39.1 | > 90.8 | > 100 | > 100 | > 100 |  | > 100 | > 92.4 | > 100 | > 81.7 | 7.61 | > 48.6 | 55 | 48.8 | 28.8 | 1.19 | 39.4 | 24 | 46 | > 36.8
15 | COC(=O)COc1ccc(/C=C2/N=C(c3ccccc3)N(c3c(C)n(C)n(-c4ccccc4)c3=O)C2=O)cc1 | 35.9 | > 100 | 60.5 | 40.6 | 45.1 | > 100 | 37.9 | 44.8 | 49 | 30.7 | 16 | 37.8 | 24.7 | 19.7 | 21.8 | 57.5 | 19.6 | 21.7 | 22.5 | 16.7
16 | C=C1CCC2(C#N)[C@H]3[C@H](CC[C@@H]2C)[C@@H](C)C[C@@H](CC(C)(C)NC(=O)CN2CCC2=O)[C@H]13 (some centres undefined) | 13 | > 100 | 30.7 | 23.9 | 44.3 | 36.7 | 36.6 | 15.9 | 49.5 | 10.2 | 2.56 | 6.42 | 4.79 | 8.56 | 7.97 | 10.4 | 4.7 | 2.87 | 11.9 | 1.57

— PubChem BioAssay (NCI)
